The values below come from article PMC9653733, “Characterization of a Potent, Selective, and Safe Inhibitor, Ac15(Az8)2, in Reversing Multidrug Resistance Mediated by Breast Cancer Resistance Protein (BCRP/ABCG2)” (International Journal of Molecular Sciences, 2022).

“And” between values parts separate entries of the source, which are not always exact repeats. Equal entries are not always repeated. Where two headings read alike, the source gives them in different places.

Data set [1] concerns BCRP (MCF7-MX100 cells). To be noted: concentration reducing IC50 of anticancer drug by half; mean ± S.D.; ref [42]; read-out: EC50 needed for reversing BCRP-mediated topotecan resistance, MCF7-MX100; cited from earlier work.
Data set [2] deals with T1, BCRP (Homo sapiens, UniProt Q9UNQ0, R482G).
T1 construct: endogenous in cells; host or cells: S1M180 (human colon carcinoma, mitoxantrone-selected)
T1 sequence (Q9UNQ0 1-655 R482G): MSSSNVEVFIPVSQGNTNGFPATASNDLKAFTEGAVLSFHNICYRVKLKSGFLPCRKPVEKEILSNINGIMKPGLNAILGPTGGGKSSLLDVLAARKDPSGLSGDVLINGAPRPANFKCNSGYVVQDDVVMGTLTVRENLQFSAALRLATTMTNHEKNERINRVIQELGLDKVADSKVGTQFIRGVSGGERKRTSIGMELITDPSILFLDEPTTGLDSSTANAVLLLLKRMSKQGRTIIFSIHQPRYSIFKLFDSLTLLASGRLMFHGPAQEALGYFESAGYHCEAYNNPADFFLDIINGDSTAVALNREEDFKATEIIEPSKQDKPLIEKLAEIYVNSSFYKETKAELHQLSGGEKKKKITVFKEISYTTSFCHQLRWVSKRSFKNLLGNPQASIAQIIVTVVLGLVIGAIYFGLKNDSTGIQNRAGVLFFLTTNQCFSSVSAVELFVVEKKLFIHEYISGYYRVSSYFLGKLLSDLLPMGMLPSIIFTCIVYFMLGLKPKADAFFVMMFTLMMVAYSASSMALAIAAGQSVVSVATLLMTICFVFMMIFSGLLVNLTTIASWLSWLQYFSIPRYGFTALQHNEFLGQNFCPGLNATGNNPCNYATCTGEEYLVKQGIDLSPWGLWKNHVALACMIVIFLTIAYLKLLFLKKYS
Put plainly: Lineweaver-Burk and Dixon plots of DOX retention in S1M180. Type of data set: cell-based. To be noted: for Ki: S1M180, DOX retention. As to the method: We investigated the biochemical mechanism by which Ac15(Az8)2 inhibits BCRP. S1M180 cells were incubated with DOX and Ac15(Az8)2 at different concentrations. DOX accumulation was measured and analyzed by Lineweaver–Burk plot. […] Moreover, it is implied that DOX and Ac15(Az8)2 are not binding to the same site on BCRP. The apparent inhibition constant (Ki) can be calculated by either the Lineweaver–Burk plot (inset of Figure 5A) or the Dixon plot (Figure 5B).
Figure 5 Lineweaver–Burk and Dixon plot for Ac15(Az8)2 and DOX. S1M180 cells were incubated with different concentrations of Ac15(Az8)2 and DOX. The cells were pre-treated with Ac15(Az8)2 for 2 h and then incubated with DOX for 1 h at 37 °C. After incubation, the cells were washed with ice-cold PBS, and the intracellular DOX level was measured. (A) In Lineweaver–Burk plot, the reciprocal of DOX retention rate (V, μM/min/500,000 cells) is plotted against reciprocal of DOX concentration used. Six lines of Ac15(Az8)2 pass through the same intercepts at the x-axis, which is Km for the DOX. […] (B) In Dixon plot, reciprocal of DOX retention rate (1/V) was plotted against concentration of Ac15(Az8)2.

Data set [3] concerns L929. Put plainly: Cytotoxicity towards normal mouse fibroblast cells L929. To be noted: value without asterisk. Type of data set: cell-based.
Data set [4] deals with T2, BCRP-ATPase (Homo sapiens, UniProt Q9UNQ0, R482G).
T2 construct: endogenous in cells; host or cells: S1M180 (human colon carcinoma, mitoxantrone-selected)
T2 sequence (Q9UNQ0 1-655 R482G): T1 sequence (Q9UNQ0 1-655 R482G)
Description: Vanadate-sensitive BCRP-ATPase activity (S1M180 microsome fraction). The class given is biochemical. To be noted: 2.5 mM ATP, 1 h.
Description: Ouabain (Na^+/K^+-ATPase inhibitor) and sodium azide (F-type ATPase inhibitor) were added to S1M180 microsome fraction to inhibit non-ABC transporter ATPase activities. Sodium orthovanadate inhibits ABC transporter ATPase activity and is used to calculate vanadate-ensitive activity by subtraction from the total ATPase activity (without sodium orthovanadate). […] After reaction was stopped, inorganic phosphate level was determined using colorimetry method. The percentages of vanadate-sensitive BCRP-ATPase activity were shown as mean ± S.D.
The membrane fraction of S1M180 cells was prepared as previously reported [48]. […] The absorbance of 655 nm was measured by CLARIOstar® microplate reader (BMG). […]

Data set [5] is described as follows: Pharmacokinetics of topotecan in mice with or without Ac15(Az8)2. Type of data set: in vivo. The conditions noted are these: female, Balb/c, mouse, plasma, ip, topotecan 2 mg/kg I.P.; for AUC(0-inf) / Cmax / half-life: 2 mg/kg; for half-life: read-out: Half-life (E-phase) of topotecan (converted). The protocol:
Ac15(Az8)2 and topotecan in plasma were analyzed by UPLC–MS/MS. UPLC (Acquity Waters) and triple quadrupole mass analyzer (Quattro Ultima) with an electrospray ionization source in the positive mode were used to quantify Ac15(Az8)2 and topotecan. Acquity UPLC BEH C8 and C18 column (1.7 µm 2.1 × 50 mm) from Waters was used to separate Ac15(Az8)2 and topotecan, respectively. Mobile phases used for Ac15(Az8)2 analysis were water and acetonitrile. Ac15(Az8)2 and its internal standard Ac15(Az5)2 (Figure S2) were monitored at m/z 608 → m/z 149 and m/z 594 → […], respectively. Mobile phases used for topotecan analysis were water and methanol. Topotecan and its internal standard tetracycline were monitored at m/z 422 → m/z 377 and m/z 445 → m/z 410, respectively.
Female Balb/c mice at 4–6 weeks were used for the pharmacokinetic studies. Ac15(Az8)2 at 4 mg/mL was prepared in 10% NMP, 10% Cremophor-EL and 80% H2O. Topotecan was dissolved in H2O at 1 mg/mL, and 45 mg/kg Ac15(Az8)2 was administered through intraperitoneal (I.P.) injection. Blood was collected at 10, 30, 60, 70, 90, 120, 180, 240, 300, 480, 720 and 1440 min by cardiac puncture and stored in heparinized tubes for centrifugation at 16,000 g for 5 min. For topotecan pharmacokinetic study, 2 mg/kg topotecan was I.P. administered one hour after 45 mg/kg Ac15(Az8)2 or solvent injection. Blood was collected at 10, 30, 60, 120, 240 and 480 min post-topotecan administration. All animal studies were approved by the Animal Subjects Ethics Sub-committee of the Hong Kong Polytechnic University and performed in accordance with the Cap340 Animal License of the Department of Health in Hong Kong.

The test system of data set [6] is S1M180 cells. Description: Cytotoxicity of anticancer drugs in S1M180 (0.1% DMSO). Type of data set: cell-based, human. The protocol:
In total, 6500 cells of S1M180 or MCF7-MX100 were incubated with various doses of topotecan or DOX and modulators. The final volume in each well of 96-well plates was 200 µL. The plates were then incubated for 5 days at 37 °C. The CellTiter 96 AQueous Assay (Promega) was used to measure cell proliferation. According to the manufacturer’s instructions, MTS (2 mg/mL) and PMS (0.92 mg/mL) were mixed in a ratio of 20:1. An aliquot (10 μL) of the freshly prepared MTS/PMS mixture was added into each well, and the plate was incubated for 2 h at 37 °C. Optical absorbance at 490 nm was then recorded with microplate absorbance reader (Bio-Rad). IC50 values were calculated from the dose-response curves of MTS assays (Prism 4.0).

The mark [7] stands for this setting: 45 mg/kg Ac15(Az8)2 I.P. one hour prior.

The term EC50 denotes the midpoint of the concentration-response curve. What is called IC50 is the concentration needed to halve the response being measured. As for `COC(=O)c1cccc(COc2c(-c3ccc(OCCOCCn4cc(CN(Cc5ccccc5)Cc5cn(CCOCCOc6ccc(-c7oc8ccccc8c(=O)c7OCc7cccc(C(=O)OC)c7)cc6)nn5)nn4)cc3)oc3ccccc3c2=O)c1` [Ac15(Az8)2], the EC50 in data set [1] is 3 nM and 3.3 nM. Also, the Ki in data set [2] (Lineweaver–Burk and Dixon, read-out: Apparent inhibition constant (Ki), range of both plots) is 230 to 295 nM; in data set [2] (read-out: Ki, Dixon plot), 230 nM; in data set [2] (slope of double reciprocal plots vs concentration, read-out: Apparent Ki, Lineweaver–Burk plot), 295 nM. Besides, in data set [2] (did not affect Km but reduced Vmax), the “Relationship with DOX in binding to BCRP” value is “non-competitive”. Further, the half-maximal inhibitory concentration (IC50) in data set [3] was greater than 500000 nM; in data set [4], 7.5 nM.
What is called AUC(0-inf) is the area under the concentration-time curve extrapolated to infinity. A high value points to more exposure. As a reminder, the Cmax is the peak of the concentration-time curve. Broadly, the half-life is the time in which the quantity being followed falls by half. Usually Tmax stands for the time at which the peak concentration occurs. In the case of `CC[C@@]1(O)C(=O)OCc2c1cc1n(c2=O)Cc2cc3c(CN(C)C)c(O)ccc3nc2-1` [topotecan], in data set [5] (setting [7]), the AUC(0-inf) was 8700 ng·h/mL, the Cmax amounted to 4400 ng/mL, the half-life is 1.6 h and the Tmax amounted to 1 h. In data set [5] (Ac15(Az8)2 0 mg/kg (solvent)), the AUC(0-inf) was 4400 ng·h/mL, the concentration peaked (Cmax) at 2900 ng/mL and the half-life is 1.3 h. Also, the IC50 in data set [6] (Homo sapiens, S1-M1-80, S1M180 + 0.1% DMSO, mean ± S.D., n = 3, read-out: IC50 of topotecan) came to 12400 nM. Further, the “RF (Relative Fold), topotecan” value in data set [6] (S1M180 + 0.1% DMSO (reference)) came to 1.0.
